The values that follow come from US20080009418A1, “Selective Inhibitors” (Alchemia LTD., priority 2004, published 2008).

The structures appear in SMILES notation.

The target in one test is T1, Human δ-opioid (DOP) (Homo sapiens, UniProt P41143).
T1 construct: purchased Perkin Elmer Biosignal
In words: Radioligand binding, human δ-opioid (DOP) membranes, FlashPlate, [3H]-Bremazocine. As to conditions: compound at 10 μM, [3H]-Bremazocine. The gist of the method: (§1)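 Cloned human receptor membranes were coated onto FlashPlate wells and incubated with radioligand and compound (added from a 0.5 mM DMSO daughter plate) for 1 hour at room temperature in the dark. Scintillation counting gave percent inhibition, with DMSO defining total and reference ligand defining non-specific binding.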

A further test has as its target T2, Human κ-Opioid (KOP) (Homo sapiens, UniProt P41145).
T2 construct: purchased Perkin Elmer Biosignal
The experiment in a line: Radioligand binding, human κ-opioid (KOP) membranes, filtration, [3H]-Diprenorphine. As to conditions: compound at 10 μM, [3H]-Diprenorphine. The gist of the method: (§2)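 Filtration binding on cloned human receptor membranes (1 Unit/well), [125I]-Substance P for NK1 and [3H]-Diprenorphine for KOP, 1 h at room temperature. Filters PEI-presoaked, washed with cold 50 mM Tris-HCl pH 7.4, counted by scintillation; percent inhibition calculated, reference ligand defining non-specific binding.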

In the next test the target is T3, Human Melanocortin (MC3) (Homo sapiens, UniProt P41968).
T3 construct: purchased Perkin Elmer Biosignal
T3 sequence (P41968 whole entry): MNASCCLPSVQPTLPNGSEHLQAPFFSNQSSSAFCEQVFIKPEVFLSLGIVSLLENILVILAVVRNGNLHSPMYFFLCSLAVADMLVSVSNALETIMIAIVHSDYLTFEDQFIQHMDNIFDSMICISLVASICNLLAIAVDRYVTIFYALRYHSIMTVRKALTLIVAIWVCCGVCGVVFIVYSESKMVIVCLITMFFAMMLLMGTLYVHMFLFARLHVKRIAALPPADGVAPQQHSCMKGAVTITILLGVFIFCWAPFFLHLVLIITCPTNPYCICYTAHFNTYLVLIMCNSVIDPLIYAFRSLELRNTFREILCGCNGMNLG
The experiment in a line: Radioligand binding, human melanocortin MC3 membranes, FlashPlate, [125I]-NDP-αMSH. The conditions noted are these: compound at 10 μM, [125I]-NDP-αMSH. The gist of the method:
as §1

Another test has as its target T4, Human Melanocortin (MC4) (Homo sapiens, UniProt P32245).
T4 construct: purchased Perkin Elmer Biosignal
In words: Radioligand binding, human melanocortin MC4 membranes, FlashPlate, [125I]-NDP-αMSH. The conditions noted are these: compound at 10 μM, [125I]-NDP-αMSH. The gist of the method: as §1

For the next test, the target named is T5, Human melanocortin (MC5) (Homo sapiens, UniProt P33032).
T5 construct: purchased Perkin Elmer Biosignal
T5 sequence (P33032 whole entry): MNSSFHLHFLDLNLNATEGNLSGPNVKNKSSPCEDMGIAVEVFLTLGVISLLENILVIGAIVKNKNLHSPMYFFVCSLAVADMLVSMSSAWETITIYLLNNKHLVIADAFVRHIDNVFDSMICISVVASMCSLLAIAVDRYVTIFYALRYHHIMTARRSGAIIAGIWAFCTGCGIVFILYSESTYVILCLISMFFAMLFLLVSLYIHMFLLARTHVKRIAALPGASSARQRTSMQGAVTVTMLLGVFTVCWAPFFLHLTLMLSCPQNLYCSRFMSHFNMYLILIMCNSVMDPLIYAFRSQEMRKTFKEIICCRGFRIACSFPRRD
In words: Radioligand binding, human melanocortin MC5 membranes, FlashPlate, [125I]-NDP-αMSH. The conditions noted are these: compound at 10 μM, [125I]-NDP-αMSH. The gist of the method:
as §1

The target in test [1] is T6, Human melanin-concentrating hormone (MCH1) (Homo sapiens, UniProt Q99705).
T6 construct: purchased Perkin Elmer Biosignal
T6 sequence (Q99705 whole entry): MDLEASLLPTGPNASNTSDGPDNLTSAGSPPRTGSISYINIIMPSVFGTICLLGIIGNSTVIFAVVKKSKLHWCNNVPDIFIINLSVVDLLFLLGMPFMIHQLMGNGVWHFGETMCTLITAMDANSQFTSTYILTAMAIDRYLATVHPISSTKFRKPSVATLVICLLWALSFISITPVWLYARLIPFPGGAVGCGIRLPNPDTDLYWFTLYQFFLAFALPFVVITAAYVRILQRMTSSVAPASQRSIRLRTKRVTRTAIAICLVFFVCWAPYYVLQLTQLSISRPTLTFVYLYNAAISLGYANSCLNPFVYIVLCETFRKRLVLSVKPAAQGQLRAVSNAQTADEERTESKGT
In words: Radioligand binding, human melanin-concentrating hormone MCH1 membranes, FlashPlate, [125I]-S36057. The conditions noted are these: compound at 10 μM. A digest of the protocol:
as §1

For the next test, the target named is T7, Human μ-opioid (MOP) (Homo sapiens, UniProt P35372).
T7 construct: purchased Perkin Elmer Biosignal
T7 sequence (P35372 whole entry): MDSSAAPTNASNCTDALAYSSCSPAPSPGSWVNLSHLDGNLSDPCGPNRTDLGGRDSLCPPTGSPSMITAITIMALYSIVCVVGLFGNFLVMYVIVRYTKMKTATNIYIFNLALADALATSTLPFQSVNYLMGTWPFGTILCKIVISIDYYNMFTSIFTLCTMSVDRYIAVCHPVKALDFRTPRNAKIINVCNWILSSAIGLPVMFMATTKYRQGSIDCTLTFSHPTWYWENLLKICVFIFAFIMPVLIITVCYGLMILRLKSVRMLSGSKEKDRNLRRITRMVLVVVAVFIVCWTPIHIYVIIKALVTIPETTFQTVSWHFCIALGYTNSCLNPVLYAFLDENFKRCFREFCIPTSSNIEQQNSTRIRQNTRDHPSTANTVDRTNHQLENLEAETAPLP
The experiment in a line: Radioligand binding, human μ-opioid (MOP) membranes, FlashPlate, [3H]-Naloxone. As to conditions: compound at 10 μM, [3H]-Naloxone. The gist of the method: as §1

The next test concerns the target T8, Human neurokinin (NK1) (Homo sapiens, UniProt P25103).
T8 construct: purchased Perkin Elmer Biosignal
The experiment in a line: Radioligand binding, human neurokinin NK1 membranes, filtration, [125I]-Substance P. As to conditions: compound at 10 μM, [125I]-Substance P. A digest of the protocol:
as §2

In test [2] the target is T9, Human neuropeptide Y (NPY-Y1) (Homo sapiens, UniProt P25929).
T9 construct: purchased Perkin Elmer Biosignal
T9 sequence (P25929 1-384): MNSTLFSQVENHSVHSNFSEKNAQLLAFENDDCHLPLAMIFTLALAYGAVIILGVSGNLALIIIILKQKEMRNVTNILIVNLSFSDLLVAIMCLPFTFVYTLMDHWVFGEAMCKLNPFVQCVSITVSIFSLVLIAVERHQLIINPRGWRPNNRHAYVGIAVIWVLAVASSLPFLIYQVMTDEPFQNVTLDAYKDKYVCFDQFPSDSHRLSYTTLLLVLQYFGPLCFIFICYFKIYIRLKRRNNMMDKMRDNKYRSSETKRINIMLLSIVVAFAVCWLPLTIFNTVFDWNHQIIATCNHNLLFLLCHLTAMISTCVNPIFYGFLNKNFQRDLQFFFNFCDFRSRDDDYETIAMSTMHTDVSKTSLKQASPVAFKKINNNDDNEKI
The experiment in a line: Radioligand binding, human neuropeptide Y NPY-Y1 membranes, FlashPlate, [125I]-PYY. The conditions noted are these: compound at 10 μM, [125I]-PYY. The gist of the method: as §1

A further test addresses T10, Human opioid (ORL1) (Homo sapiens, UniProt P41146).
T10 construct: purchased Perkin Elmer Biosignal
The experiment in a line: Radioligand binding, human opioid ORL1 membranes, FlashPlate, [125I]-Nociceptin. The conditions noted are these: compound at 10 μM, [125I]-Nociceptin. The gist of the method:
as §1

The next test deals with T11, Mouse urotensin (mUR2) (Mus musculus, UniProt Q8VIH9).
T11 construct: purchased Perkin Elmer Biosignal
T11 sequence (Q8VIH9 1-385): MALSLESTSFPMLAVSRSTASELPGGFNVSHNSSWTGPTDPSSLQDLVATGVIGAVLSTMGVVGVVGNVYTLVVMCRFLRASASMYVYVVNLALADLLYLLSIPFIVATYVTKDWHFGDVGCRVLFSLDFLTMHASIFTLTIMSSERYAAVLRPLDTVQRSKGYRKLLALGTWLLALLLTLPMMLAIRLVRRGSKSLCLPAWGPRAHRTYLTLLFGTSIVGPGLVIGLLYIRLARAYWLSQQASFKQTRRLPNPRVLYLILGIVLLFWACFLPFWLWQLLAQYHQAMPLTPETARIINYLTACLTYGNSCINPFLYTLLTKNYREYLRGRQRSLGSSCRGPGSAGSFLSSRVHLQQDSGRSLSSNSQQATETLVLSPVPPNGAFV
The experiment in a line: Radioligand binding, mouse urotensin mUR2 membranes, FlashPlate, [125I]-Urotensin II. The conditions noted are these: compound at 10 μM, [125I]-Urotensin II. The gist of the method: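 Cloned mouse urotensin (mUR2) receptor membranes from Perkin Elmer Biosignal were immobilized in FlashPlate microplates using a proprietary coating. Each well got 19.5 μl buffer, then 0.5 μl of DMSO, reference ligand, or compound. Adding 5 μl of [125I]-Urotensin II, diluted to 5× final concentration in binding buffer, started binding. Plates were sealed with TopSeal-A and incubated 1 hour at room temperature in the dark. Wells were counted for 30 seconds each on a TopCount after a 60-second delay, and percentage inhibition was calculated.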

T1 sequence (P41143 whole entry): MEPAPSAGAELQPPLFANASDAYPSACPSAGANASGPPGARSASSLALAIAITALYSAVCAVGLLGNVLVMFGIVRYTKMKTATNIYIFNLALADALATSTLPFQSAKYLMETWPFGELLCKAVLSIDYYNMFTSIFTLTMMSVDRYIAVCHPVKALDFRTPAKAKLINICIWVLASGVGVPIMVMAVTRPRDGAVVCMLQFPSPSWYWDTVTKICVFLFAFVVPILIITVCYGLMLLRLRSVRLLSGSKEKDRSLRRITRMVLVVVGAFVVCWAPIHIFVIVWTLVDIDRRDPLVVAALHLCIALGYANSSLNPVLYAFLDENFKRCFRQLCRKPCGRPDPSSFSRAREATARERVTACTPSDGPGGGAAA
T10 sequence (P41146 whole entry): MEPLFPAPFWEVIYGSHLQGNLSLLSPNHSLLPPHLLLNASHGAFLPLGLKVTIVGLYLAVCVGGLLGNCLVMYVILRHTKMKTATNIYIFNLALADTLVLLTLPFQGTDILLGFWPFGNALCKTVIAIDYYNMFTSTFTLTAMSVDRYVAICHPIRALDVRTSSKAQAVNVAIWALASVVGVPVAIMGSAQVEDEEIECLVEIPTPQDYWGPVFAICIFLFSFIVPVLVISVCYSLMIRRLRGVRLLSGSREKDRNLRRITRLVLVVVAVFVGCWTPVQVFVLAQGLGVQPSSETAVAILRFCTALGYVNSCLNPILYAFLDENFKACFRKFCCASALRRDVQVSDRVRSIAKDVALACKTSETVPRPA
T8 sequence (P25103 whole entry): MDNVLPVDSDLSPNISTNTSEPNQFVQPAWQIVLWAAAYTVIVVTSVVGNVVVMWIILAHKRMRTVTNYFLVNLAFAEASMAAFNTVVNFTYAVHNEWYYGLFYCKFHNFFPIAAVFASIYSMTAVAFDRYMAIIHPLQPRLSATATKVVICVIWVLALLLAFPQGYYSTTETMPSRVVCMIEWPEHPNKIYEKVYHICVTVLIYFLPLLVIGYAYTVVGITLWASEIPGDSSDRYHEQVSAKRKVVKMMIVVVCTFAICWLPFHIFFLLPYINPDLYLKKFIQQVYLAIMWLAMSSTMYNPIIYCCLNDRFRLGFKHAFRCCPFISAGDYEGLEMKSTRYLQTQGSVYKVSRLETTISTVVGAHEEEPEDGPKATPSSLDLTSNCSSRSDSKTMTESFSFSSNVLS
T4 sequence (P32245 whole entry): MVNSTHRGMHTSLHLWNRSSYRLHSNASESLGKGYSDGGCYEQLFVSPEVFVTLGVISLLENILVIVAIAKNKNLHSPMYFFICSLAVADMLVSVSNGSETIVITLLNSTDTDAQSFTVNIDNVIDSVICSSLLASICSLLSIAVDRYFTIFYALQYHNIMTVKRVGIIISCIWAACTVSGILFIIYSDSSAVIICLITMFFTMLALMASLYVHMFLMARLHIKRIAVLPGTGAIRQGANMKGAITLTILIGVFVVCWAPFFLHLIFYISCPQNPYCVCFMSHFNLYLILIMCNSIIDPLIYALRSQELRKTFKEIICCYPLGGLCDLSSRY
T2 sequence (P41145 whole entry): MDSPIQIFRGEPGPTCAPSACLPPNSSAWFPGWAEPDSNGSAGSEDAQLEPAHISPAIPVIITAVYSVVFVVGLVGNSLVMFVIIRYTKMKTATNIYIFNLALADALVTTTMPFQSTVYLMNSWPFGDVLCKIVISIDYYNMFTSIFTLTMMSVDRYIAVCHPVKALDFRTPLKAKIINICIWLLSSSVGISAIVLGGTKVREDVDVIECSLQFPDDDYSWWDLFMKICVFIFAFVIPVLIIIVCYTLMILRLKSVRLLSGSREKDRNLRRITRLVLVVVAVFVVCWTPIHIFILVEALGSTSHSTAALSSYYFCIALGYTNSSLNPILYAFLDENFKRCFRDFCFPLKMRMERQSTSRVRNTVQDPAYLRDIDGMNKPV

`NCCC(=O)NC1C(OCc2ccc3ccccc3c2)OC(COCc2ccc(Cl)cc2)C(O)C1OCc1ccc2ccccc2c1` (centres unmarked) [compound 386]: the “A1: inhibition of radioligand binding” value at Human δ-opioid (DOP) (human DOP membranes) was “− (“−” indicates less than 50% inhibition at 10 μM)”. Moreover, the “A2: inhibition of radioligand binding” value on Human κ-Opioid (KOP) (human KOP membranes) is “− (“−” indicates less than 50% inhibition at 10 μM)”. Moreover, the “A3: inhibition of radioligand binding” value at Human Melanocortin (MC3) (human MC3 membranes) is reported as “+ (“+” indicates greater than 50% inhibition at 10 μM)”. Besides, the “A4: inhibition of radioligand binding” value at Human Melanocortin (MC4) (human MC4 membranes) is recorded as “+ (“+” indicates greater than 50% inhibition at 10 μM)”. Moreover, the “A5: inhibition of radioligand binding” value at Human melanocortin (MC5) (human MC5 membranes) is reported as “+ (“+” indicates greater than 50% inhibition at 10 μM)”. Moreover, the “A6: inhibition of radioligand binding” value in test [1] ([125I]-S36057, human MCH1 membranes) is on record as “− (“−” indicates less than 50% inhibition at 10 μM)”. Moreover, at Human μ-opioid (MOP) (human MOP membranes), the “A7: inhibition of radioligand binding” value is on record as “− (“−” indicates less than 50% inhibition at 10 μM)”. The “A8: inhibition of radioligand binding” value on Human neurokinin (NK1) (human NK1 membranes) is given as “+ (“+” indicates greater than 50% inhibition at 10 μM)”. For the same compound, in test [2] (human NPY-Y1 membranes), the “A9: inhibition of radioligand binding” value is given as “− (“−” indicates less than 50% inhibition at 10 μM)”. In addition, the “A10: inhibition of radioligand binding” value on Human opioid (ORL1) (human ORL1 membranes) is listed as “− (“−” indicates less than 50% inhibition at 10 μM)”. Further, at Mouse urotensin (mUR2) (mouse mUR2 membranes), the “A11: inhibition of radioligand binding” value is listed as “− (“−” indicates less than 50% inhibition at 10 μM)”.

On to `COCC1OC(OCc2ccc3ccccc3c2)C(NC(=O)CCCNC(=N)N)C(OCc2ccccc2)C1O` (centres unmarked) [compound 234], for which the “A1: inhibition of radioligand binding” value on Human δ-opioid (DOP) (FlashPlate) was “− (“−” indicates less than 50% inhibition at 10 μM)”. Besides, the “A2: inhibition of radioligand binding” value on Human κ-Opioid (KOP) (filtration) was “− (“−” indicates less than 50% inhibition at 10 μM)”. The “A3: inhibition of radioligand binding” value on Human Melanocortin (MC3) (FlashPlate) is listed as “− (“−” indicates less than 50% inhibition at 10 μM)”. Besides, at Human Melanocortin (MC4) (FlashPlate), the “A4: inhibition of radioligand binding” value is given as “− (“−” indicates less than 50% inhibition at 10 μM)”. Also, the “A5: inhibition of radioligand binding” value on Human melanocortin (MC5) (FlashPlate) is “− (“−” indicates less than 50% inhibition at 10 μM)”. Further, in [1] ([125I]-S36057, FlashPlate), the “A6: inhibition of radioligand binding” value is listed as “− (“−” indicates less than 50% inhibition at 10 μM)”. The “A7: inhibition of radioligand binding” value on Human μ-opioid (MOP) (FlashPlate) is “− (“−” indicates less than 50% inhibition at 10 μM)”. Besides, the “A8: inhibition of radioligand binding” value on Human neurokinin (NK1) (filtration) is “+ (“+” indicates greater than 50% inhibition at 10 μM)”. For the same compound, in test [2] (FlashPlate), the “A9: inhibition of radioligand binding” value is on record as “− (“−” indicates less than 50% inhibition at 10 μM)”. For the same compound, the “A10: inhibition of radioligand binding” value at Human opioid (ORL1) (FlashPlate) is reported as “− (“−” indicates less than 50% inhibition at 10 μM)”. For the same compound, the “A11: inhibition of radioligand binding” value at Mouse urotensin (mUR2) (FlashPlate) is on record as “− (“−” indicates less than 50% inhibition at 10 μM)”.

Take `N=C(N)NCCC(=O)N[C@H]1C(OCc2ccc(Cl)cc2)O[C@H](COCc2ccc(Cl)cc2)[C@@H](O)[C@@H]1OCc1ccc(Cl)cc1` (some centres unmarked) [compound 527]: the “A1: inhibition of radioligand binding, human δ-opioid (DOP)” value on Human δ-opioid (DOP) is given as “− (“−” indicates less than 50% inhibition at 10 μM)”. The “A2: inhibition of radioligand binding, human κ-opioid (KOP)” value at Human κ-Opioid (KOP) (10 µM) is reported as “+ (“+” indicates greater than 50% inhibition at 10 μM)”. For the same compound, the “A3: inhibition of radioligand binding, human melanocortin (MC3)” value on Human Melanocortin (MC3) (10 µM) is “+ (“+” indicates greater than 50% inhibition at 10 μM)”. The “A4: inhibition of radioligand binding, human melanocortin (MC4)” value on Human Melanocortin (MC4) (10 µM) is “+ (“+” indicates greater than 50% inhibition at 10 μM)”. Moreover, the “A5: inhibition of radioligand binding, human melanocortin (MC5)” value at Human melanocortin (MC5) was “+ (“+” indicates greater than 50% inhibition at 10 μM)”. In addition, the “A6: inhibition of radioligand binding, human melanin-concentrating hormone (MCH1)” value in test [1] ([125I]-S36057) was “+ (“+” indicates greater than 50% inhibition at 10 μM)”. The “A7: inhibition of radioligand binding, human μ-opioid (MOP)” value on Human μ-opioid (MOP) is “− (“−” indicates less than 50% inhibition at 10 μM)”. For the same compound, the “A8: inhibition of radioligand binding, human neurokinin (NK1)” value on Human neurokinin (NK1) is listed as “+ (“+” indicates greater than 50% inhibition at 10 μM)”. The “A9: inhibition of radioligand binding, human neuropeptide Y (NPY-Y1)” value in test [2] is on record as “− (“−” indicates less than 50% inhibition at 10 μM)”. Also, the “A10: inhibition of radioligand binding, human opioid (ORL1)” value at Human opioid (ORL1) is recorded as “− (“−” indicates less than 50% inhibition at 10 μM)”. On Mouse urotensin (mUR2), the “A11: inhibition of radioligand binding, mouse urotensin (mUR2)” value is listed as “− (“−” indicates less than 50% inhibition at 10 μM)”.

With `NCCCC(=O)NC1C(OCc2ccc3ccccc3c2)OC(COCc2ccc(Cl)cc2)C(O)C1OCc1ccc2ccccc2c1` (single isomer, unassigned) [compound 464], the “A1: inhibition of radioligand binding” value at Human δ-opioid (DOP) (human DOP membranes) is listed as “− (“−” indicates less than 50% inhibition at 10 μM)”. Besides, the “A2: inhibition of radioligand binding” value on Human κ-Opioid (KOP) (human KOP membranes, 10 µM) is listed as “− (“−” indicates less than 50% inhibition at 10 μM)”. Moreover, the “A3: inhibition of radioligand binding” value at Human Melanocortin (MC3) (human MC3 membranes) is “+ (“+” indicates greater than 50% inhibition at 10 μM)”. Besides, the “A4: inhibition of radioligand binding” value on Human Melanocortin (MC4) (human MC4 membranes) is listed as “+ (“+” indicates greater than 50% inhibition at 10 μM)”. Further, on Human melanocortin (MC5) (human MC5 membranes), the “A5: inhibition of radioligand binding” value is “+ (“+” indicates greater than 50% inhibition at 10 μM)”. Also, the “A6: inhibition of radioligand binding” value in test [1] ([125I]-S36057, human MCH1 membranes, 10 µM) is on record as “+ (“+” indicates greater than 50% inhibition at 10 μM)”. Further, the “A7: inhibition of radioligand binding” value on Human μ-opioid (MOP) (human MOP membranes) is listed as “− (“−” indicates less than 50% inhibition at 10 μM)”. Also, the “A8: inhibition of radioligand binding” value at Human neurokinin (NK1) (human NK1 membranes) was “+ (“+” indicates greater than 50% inhibition at 10 μM)”. Moreover, the “A9: inhibition of radioligand binding” value in test [2] (human NPY-Y1 membranes) is listed as “− (“−” indicates less than 50% inhibition at 10 μM)”. Besides, the “A10: inhibition of radioligand binding” value on Human opioid (ORL1) (human ORL1 membranes, 10 µM) is “+ (“+” indicates greater than 50% inhibition at 10 μM)”. Besides, the “A11: inhibition of radioligand binding” value on Mouse urotensin (mUR2) (mouse mUR2 membranes) was “− (“−” indicates less than 50% inhibition at 10 μM)”.
